From US8796457B2, “Compound useful for the treatment of degenerative and inflammatory diseases” (Galapagos NV, priority 2009, dated 2014)

Assays:
[1] = target: Recombinant human TYK2 catalytic domain (Homo sapiens (Human), UniProt P29597); experiment: TYK2 inhibition assay; assay type: biochemical; conditions: 0.1 μM ATP
Method: Recombinant human TYK2 catalytic domain (amino acids 871-1187; catalog number 08-147) was purchased from Carna biosciences. 5 ng of TYK2 was incubated with 12.5 μg polyGT substrate (Sigma catalog number P0275) in kinase reaction buffer (25 mM Hepes pH 7.5, 100 mM NaCl, 0.2 mM Na3VO4, 0.1% NP-40, 0.1 μM non-radioactive ATP, 0.125 μCi ^33P-gamma-ATP (GE Healthcare, catalog number AH9968) final concentrations) with or without 5 μL containing test compound or vehicle (DMSO, 1% final concentration), in a total volume of 25 μL, in a polypropylene 96-well plate (Greiner, V-bottom). After 90 min at 30° C., reactions were stopped by adding of 25 μL/well of 150 mM phosphoric acid. […] 40 μL/well of Microscint-20 was added, the top of the plates was sealed and readout was performed using the Topcount (Perkin Elmer). Kinase activity was calculated by subtracting counts per minute (cpm) obtained in the presence of a positive control inhibitor (10 μM staurosporine) from cpm obtained in the presence of vehicle. The ability of a test compound to inhibit this activity was determined as: Percentage inhibition=((cpm determined for sample with test compound present−cpm determined for sample with positive control inhibitor) divided by (cpm determined in the presence of vehicle−cpm determined for sample with positive control inhibitor))*100. […]

[2] = target: JAK1 (Homo sapiens (Human), UniProt P23458); experiment: JAK1 Ki determination assay (polyGT, 33P filter plate); assay type: biochemical; conditions: Lineweaver-Burk; polyGT substrate, 33P readout
Method: For the determination of Ki, different amounts of inhibitor were mixed with the enzyme and the enzymatic reaction was followed as a function of ATP concentration. The Ki was determined by means of double reciprocal plotting of Km vs compound concentration (Lineweaver-Burk plot). JAK1 (Invitrogen, PV4774) was used at a final concentration of 500 ng/ml. […] Measurement of incorporated phosphate into the substrate polyGT was done by loading the samples on a filter plate (using a harvester, Perkin Elmer) and subsequent washing. Incorporated ^33P in polyGT is measured in a Topcount scintillation counter after addition of scintillation liquid to the filter plates (Perkin Elmer).

[3] = target: JAK2 (Homo sapiens (Human), UniProt O60674); experiment: JAK2 Ki determination assay (polyGT, 33P filter plate); assay type: biochemical; conditions: Lineweaver-Burk; polyGT substrate, 33P readout
Description: For the determination of Ki, different amounts of inhibitor were mixed with the enzyme and the enzymatic reaction was followed as a function of ATP concentration. […] 0.025 mU of JAK2 (Invitrogen, PV4210) was used in the assay.

[4] = tested on: HeLa cells, STAT signalling; experiment: JAK-STAT signalling assay (pSTAT1(2)-luciferase reporter, OSM trigger); assay type: cell-based; conditions: human OSM 33 ng/mL
Method: HeLa cells were maintained in Dulbecco's Modified Eagle's Medium (DMEM) containing 10% heat inactivated fetal calf serum, 100 U/mL penicillin and 100 μg/mL streptomycin. HeLa cells were used at 70% confluence for transfection. 20,000 cells in 87 μL cell culture medium were transiently transfected with 40 ng pSTAT1(2)-luciferase reporter (Panomics), 8 ng of LacZ reporter as internal control reporter and 52 ng of pBSK using 0.32 μL Jet-PEI (Polyplus) as transfection reagent per well in 96-well plate format. After overnight incubation at 37° C., 10% CO2, transfection medium was removed. 75 μL of DMEM+1.5% inactivated fetal calf serum was added. 15 μL of compound at 6.7× concentration was added for 60 min and then 10 μL of human OSM (Peprotech) at 33 ng/mL final concentration. […]
40 μL of cell lysate was used to read β-galactosidase activity by adding 180 μL βGal solution (30 μl ONPG 4 mg/mL+150 μL β-Galactosidase buffer (0.06 M Na2HPO4, 0.04 M NaH2PO4, 1 mM MgCl2)) for 20 min. The reaction was stopped by addition of 50 μL Na2CO3 1 M. Absorbance was read at 405 nm
Luciferase activity was measured using 40 μL cell lysate plus 40 μl of Steadylite® as described by the manufacturer (Perkin Elmer), on the Envision (Perkin Elmer). […]

Chain of JAK2 (O60674 849-1124): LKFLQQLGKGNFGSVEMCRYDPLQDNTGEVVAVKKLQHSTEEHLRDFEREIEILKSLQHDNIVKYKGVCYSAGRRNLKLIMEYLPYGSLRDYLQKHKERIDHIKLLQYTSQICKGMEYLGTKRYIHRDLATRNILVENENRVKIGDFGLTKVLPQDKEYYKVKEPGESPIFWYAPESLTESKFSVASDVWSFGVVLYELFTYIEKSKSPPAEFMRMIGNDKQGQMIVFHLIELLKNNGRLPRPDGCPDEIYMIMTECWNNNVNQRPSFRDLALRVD
Chain of JAK1 (P23458 866-1154): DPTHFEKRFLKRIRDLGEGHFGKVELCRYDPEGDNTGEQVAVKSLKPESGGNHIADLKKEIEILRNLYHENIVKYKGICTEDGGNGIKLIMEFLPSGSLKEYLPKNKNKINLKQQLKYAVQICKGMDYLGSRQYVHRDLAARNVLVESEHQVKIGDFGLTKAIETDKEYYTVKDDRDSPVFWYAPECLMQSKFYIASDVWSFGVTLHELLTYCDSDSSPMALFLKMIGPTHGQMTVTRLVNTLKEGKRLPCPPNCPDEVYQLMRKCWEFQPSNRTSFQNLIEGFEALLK
Chain of Recombinant human TYK2 catalytic domain (P29597 871-1187): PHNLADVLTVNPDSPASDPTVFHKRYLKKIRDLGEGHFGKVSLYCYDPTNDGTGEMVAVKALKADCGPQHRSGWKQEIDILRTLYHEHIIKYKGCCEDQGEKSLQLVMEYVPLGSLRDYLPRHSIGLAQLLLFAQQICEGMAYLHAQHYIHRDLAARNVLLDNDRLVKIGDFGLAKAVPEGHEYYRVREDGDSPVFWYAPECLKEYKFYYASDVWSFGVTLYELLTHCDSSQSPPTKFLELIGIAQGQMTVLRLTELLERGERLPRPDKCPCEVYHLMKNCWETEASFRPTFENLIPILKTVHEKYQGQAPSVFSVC

Question: What does the source list for `CC1(C)CN(C(=O)c2ccc(-c3cccc4nc(NC(=O)C5CC5)nn34)cc2)C1` [Compound 1, Cyclopropanecarboxylic acid{5-[4-(3,3-dimethyl-azetidine-1-carbonyl)-phenyl]-[1,2,4]triazolo[1,5-a]pyridin-2-yl}-amide]?
Answer: IC50 [1]: 219 ± 37 nM; Ki [2]: 6.9 nM; Ki [3]: 126 nM; EC50 [4]: 539 ± 130 nM
